Data on eleven molecules can be found in PubChem BioAssay (NCI).

Each structure is given as a SMILES string. Several values for one entry are separate records, joined by “and”; a condition that tells them apart may be missing. Equal values may be shown once.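 Test compounds were applied to cells in 96-well plates for 48 hours at 5 doses. GI50: concentration for 50% inhibition of growth. TGI denotes the concentration required for complete inhibition of growth.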

Test systems include OVCAR-8 ovarian; LOX IMVI melanoma; COLO 205 colon; UO-31 renal; HCC-2998 colon; M14 melanoma; UACC-257 melanoma; A498 renal; NCI-H23 lung; SK-OV-3 ovarian.
Holding throughout (assay): DTP human tumour cell line panel, 48 h

The term TGI denotes the concentration giving total growth inhibition. Low readings indicate more potent growth arrest, high ones less potent growth arrest. Take `c1ccc2c(c1)cc(C1NCCc3[nH]cnc31)c1ccccc12` (configuration not stated): the TGI with OVCAR-8 ovarian is over 100 µM; in the experiment on LOX IMVI melanoma, 40.7 µM; with COLO 205 colon, 26.4 µM; with UO-31 renal, over 100 µM; with HCC-2998 colon, 21.8 µM; in the experiment with M14 melanoma, 36.7 µM. Besides, the TGI is over 68.3 µM in the experiment on UACC-257 melanoma, 50 µM with A498 renal, over 100 µM in the experiment with NCI-H23 lung and over 100 µM in the experiment on SK-OV-3 ovarian.
The term GI50 denotes the concentration giving 50% growth inhibition. `C[C@H]1[C@H](C)CC[C@]2(CO)CC[C@]3(C)C(=CC[C@@H]4[C@@]5(C)CCCNC(C)(C)[C@@H]5CC[C@]43C)[C@H]12`: the GI50 is 1960 nM in the experiment on OVCAR-8 ovarian; 1590 nM with LOX IMVI melanoma; 1740 nM in the experiment with COLO 205 colon; 1540 nM with UO-31 renal; 1750 nM in the experiment on HCC-2998 colon; 1610 nM in the experiment with M14 melanoma. Moreover, the GI50 was 1950 nM in the experiment with UACC-257 melanoma, 1630 nM in the experiment on A498 renal, 1650 nM in the experiment on NCI-H23 lung and 2540 nM in the experiment with SK-OV-3 ovarian. Further, the TGI in the experiment with OVCAR-8 ovarian worked out at 3.61 µM; in the experiment with LOX IMVI melanoma, 3.05 µM; in the experiment with COLO 205 colon it was 3.46 µM; in the experiment with UO-31 renal it was 2.99 µM; in the experiment with HCC-2998 colon, 3.46 µM; with M14 melanoma it was 3.12 µM. The TGI in the experiment on UACC-257 melanoma was determined as 3.7 µM; in the experiment with A498 renal, 3.29 µM; with NCI-H23 lung, 3.26 µM; in the experiment on SK-OV-3 ovarian, 6.97 µM.
`COc1cnc2c(c1)C(=O)c1c-2n(CCCn2ccnc2)c(=O)c2cc(F)ccc12`: the GI50 with OVCAR-8 ovarian was 15.1 nM; in the experiment on LOX IMVI melanoma, under 10 nM; in the experiment on COLO 205 colon, 22.8 nM; in the experiment with UO-31 renal, under 10 nM; with HCC-2998 colon, 361 nM; in the experiment with M14 melanoma it was under 10 nM. For the same molecule, the GI50 in the experiment on UACC-257 melanoma is 102 nM; with A498 renal, 50.8 nM; in the experiment with NCI-H23 lung, 17.1 nM; in the experiment on SK-OV-3 ovarian it was 16.2 nM. The TGI came out at 13.9 µM in the experiment on OVCAR-8 ovarian; 0.128 µM in the experiment with LOX IMVI melanoma; 0.297 µM in the experiment with COLO 205 colon; 0.147 µM with UO-31 renal; 79.5 µM with HCC-2998 colon; 0.635 µM with M14 melanoma. Moreover, the TGI is 0.493 µM in the experiment with UACC-257 melanoma, 0.218 µM in the experiment with A498 renal, 0.565 µM in the experiment on NCI-H23 lung and 0.327 µM with SK-OV-3 ovarian.
Consider `Oc1ccccc1/C=C/c1csnn1`, for which the TGI in the experiment on OVCAR-8 ovarian is over 100 µM; with LOX IMVI melanoma it was 99.1 µM; in the experiment on COLO 205 colon it was over 100 µM; with UO-31 renal, over 100 µM; in the experiment on HCC-2998 colon, over 100 µM; in the experiment on M14 melanoma, over 100 µM. The TGI in the experiment with UACC-257 melanoma, in the experiment on A498 renal, in the experiment on NCI-H23 lung and with SK-OV-3 ovarian was over 100 µM each time.
On to `Cc1cc(=O)n(-c2ccccc2C)c(C)n1`, for which the TGI with OVCAR-8 ovarian, in the experiment with LOX IMVI melanoma, with COLO 205 colon, with UO-31 renal, in the experiment with HCC-2998 colon and in the experiment on M14 melanoma was over 100 µM each time. The TGI with UACC-257 melanoma, with A498 renal, in the experiment on NCI-H23 lung and in the experiment on SK-OV-3 ovarian was over 100 µM each time.
For `COc1cc([C@@H]2OC[C@@H]3C(c4cc(OC)c5c(c4)OCO5)OC[C@@H]32)cc(OC)c1OC` (some centres not stated), the TGI in the experiment with OVCAR-8 ovarian, in the experiment on LOX IMVI melanoma, in the experiment on COLO 205 colon, in the experiment with UO-31 renal, in the experiment with HCC-2998 colon and with M14 melanoma was over 100 µM throughout. Besides, the TGI with UACC-257 melanoma, with A498 renal, in the experiment on NCI-H23 lung and in the experiment with SK-OV-3 ovarian was over 100 µM each time.
In the case of `COc1ccc(C(=O)OC2C(OC3C(O)COC(O[C@H]4C[C@H]5[C@@H]6CC=C7C[C@@H](O)CC[C@]7(C)[C@H]6CC[C@]5(C)[C@H]4[C@H](C)C(=O)CCC(C)C)C3OC(N)=O)OCC(O)C2O)cc1` (some centres not stated), the GI50 is 3140 nM with OVCAR-8 ovarian; 13.7 nM with LOX IMVI melanoma; 72 nM in the experiment on COLO 205 colon; 94.4 nM in the experiment on UO-31 renal; 1210 nM in the experiment on HCC-2998 colon; 36 nM in the experiment on M14 melanoma. In addition, the GI50 in the experiment on UACC-257 melanoma is 30 nM; in the experiment with A498 renal, 6.99 nM; with NCI-H23 lung, 375 nM; in the experiment on SK-OV-3 ovarian, 42.3 nM. Moreover, the TGI worked out at 9.27 µM in the experiment on OVCAR-8 ovarian; 0.158 µM in the experiment on LOX IMVI melanoma; 0.507 µM with COLO 205 colon; 0.425 µM with UO-31 renal; 6.16 µM in the experiment with HCC-2998 colon; 0.183 µM in the experiment with M14 melanoma. Further, the TGI in the experiment with UACC-257 melanoma is 0.472 µM; with A498 renal, 0.0351 µM; in the experiment with NCI-H23 lung it was 4.81 µM; in the experiment on SK-OV-3 ovarian, 1.34 µM.
`Cc1ccc2nc(NC(=O)C(=O)C(C#N)c3nc4ccccc4s3)sc2c1` (configuration not stated): the TGI in the experiment with OVCAR-8 ovarian is over 100 µM; in the experiment on LOX IMVI melanoma, over 100 µM; in the experiment with COLO 205 colon it was 38.4 µM; in the experiment on UO-31 renal, over 100 µM; with HCC-2998 colon it was over 100 µM; with M14 melanoma it was over 100 µM. Moreover, the TGI was 87.6 µM in the experiment on UACC-257 melanoma, 37.8 µM in the experiment with A498 renal, 83.9 µM in the experiment on NCI-H23 lung and over 100 µM in the experiment with SK-OV-3 ovarian.
For `Cc1ccc(S(=O)(=O)OC2CSS(=O)CC2OS(=O)(=O)c2ccc(C)cc2)cc1` (configuration not stated), the TGI with OVCAR-8 ovarian is 22.5 µM; in the experiment with LOX IMVI melanoma, 26.1 µM; in the experiment on COLO 205 colon it was 24.1 µM; in the experiment with UO-31 renal, 33 µM; in the experiment with HCC-2998 colon, 30.9 µM; in the experiment on M14 melanoma, 27.4 µM. The TGI amounted to 28.2 µM in the experiment with UACC-257 melanoma, 30.1 µM in the experiment on A498 renal, 29 µM in the experiment on NCI-H23 lung and 38.5 µM in the experiment on SK-OV-3 ovarian.
`CC1CCC(NC(=O)N(CCCl)N=O)CC1` (configuration not stated): the GI50 in the experiment on OVCAR-8 ovarian is 20000 nM; in the experiment on LOX IMVI melanoma, 14700 nM; in the experiment with COLO 205 colon, 23100 nM; in the experiment with UO-31 renal, 61200 nM; with M14 melanoma it was 14300 nM; in the experiment on UACC-257 melanoma it was 33500 nM. Besides, the GI50 in the experiment on NCI-H23 lung was 61800 nM. Further, the total growth inhibition concentration (TGI) is 47.3 µM and 120 µM in the experiment with OVCAR-8 ovarian; 39.8 µM and 52.6 µM with LOX IMVI melanoma; 43.3 µM and 60.2 µM with COLO 205 colon; 92 µM with UO-31 renal; 93.9 µM in the experiment on HCC-2998 colon; 30.5 µM and 66.5 µM in the experiment on M14 melanoma. In addition, the TGI in the experiment with UACC-257 melanoma amounted to 89.8 µM; with A498 renal, 124 µM; in the experiment on NCI-H23 lung, 129 µM; with SK-OV-3 ovarian, 148 µM.
With `CCc1cc(C(=O)OC)cn1C(=N)c1ccc(Cl)cc1`, the TGI with OVCAR-8 ovarian, in the experiment on LOX IMVI melanoma, with COLO 205 colon, in the experiment on UO-31 renal, with HCC-2998 colon and in the experiment with M14 melanoma was over 100 µM in each case. The TGI in the experiment with UACC-257 melanoma, in the experiment with A498 renal, in the experiment on NCI-H23 lung and in the experiment with SK-OV-3 ovarian was over 100 µM in each case.
